# System: pneumonia fungi
# Experiment: Mouse pneumonia model, fungal
# Assay type: in vivo, BALB/C mice
# Parameters: concentration or dose not given beside the values
# Conditions: mean ± SD
# Description: (§1) The mouse pneumonia model was successfully established by the nose-drop method. To build the mouse pneumonia model, BALB/C mice with a body mass of 16-22 g were selected and anesthetized pneumonia chain was prepared after anesthesia with ether on day 0, day 1, and day 2. Staphylococcal fluid, adenovirus concentrate, Mycoplasma pneumoniae, Chlamydia pneumoniae, protozoa, and pneumonia fungi were slowly dripped into the nasal cavity of the mice, so that they enter the tracheobronchial. During the operation process, care was exercised to prevent bacterial fluid from flowing into the esophagus, which leads to inactivation the bacterial fluid. After successful model establishment, the polypeptides of the present invention were administered, and the results were shown in Table 5. […] The results were expressed in average value±standard deviation.
row,Substance,Inhibitory Effects on Various Pulmonary Infections [%]
1,Ile-Val-Arg-Arg-Ala-Asp-Arg-Ala-Ala-Val-Pro-Gly-Gly-Gly-Gly-Arg-Gly-Asp-Gly-Gly-Gly-Gly-Pro-(D-Pyr)-(D-Cys)-Bip-Arg-Gly-Glu [Polypeptide V],50.50 ± 16.77

# System: Pneumonia caused by lung infection
# Experiment: Mouse pneumonia model, pneumonia caused by lung infection
# Assay type: in vivo, BALB/C mice
# Parameters: concentration or dose not given beside the values
# Conditions: mean ± SD
# Description: as §1
row,Substance,Inhibitory Effects on Various Pulmonary Infections [%]
1,Ile-Val-Arg-Arg-Ala-Asp-Arg-Ala-Ala-Val-Pro-Gly-Gly-Gly-Gly-Arg-Gly-Asp-Gly-Gly-Gly-Gly-Pro-(D-Pyr)-(D-Cys)-Bip-Arg-Gly-Glu [Polypeptide V],44.61 ± 18.63

# System: adenovirus concentrate
# Experiment: Mouse pneumonia model, viral
# Assay type: in vivo, BALB/C mice
# Conditions: mean ± SD
# Description: as §1
row,Substance,Inhibitory Effects on Various Pulmonary Infections [%]
1,Ile-Val-Arg-Arg-Ala-Asp-Arg-Ala-Ala-Val-Pro-Gly-Gly-Gly-Gly-Arg-Gly-Asp-Gly-Gly-Gly-Gly-Pro-(D-Pyr)-(D-Cys)-Bip-Arg-Gly-Glu [Polypeptide V],50.35 ± 15.73

# System: Chlamydia pneumoniae
# Experiment: Mouse pneumonia model, chlamydia
# Assay type: in vivo, BALB/C mice
# Parameters: concentration or dose not given beside the values
# Conditions: mean ± SD
# Description: as §1
row,Substance,Inhibitory Effects on Various Pulmonary Infections [%]
1,Ile-Val-Arg-Arg-Ala-Asp-Arg-Ala-Ala-Val-Pro-Gly-Gly-Gly-Gly-Arg-Gly-Asp-Gly-Gly-Gly-Gly-Pro-(D-Pyr)-(D-Cys)-Bip-Arg-Gly-Glu [Polypeptide V],40.40 ± 15.13

# System: Uterine cancer
# Experiment: MTT assay, tumor cells
# Assay type: cell-based, human
# Parameters: concentration or dose not given beside the values
# Conditions: 48 hours, mean ± SD
# Description: (§2) A variety of human tumor cells were cultured in a 37° C., 5% (volume fraction) CO2 incubator to a density of 90% or more, collected by trypsinization, resuspended in a culture medium and counted under a microscope, and the cells were harvested. The concentration was adjusted to 2.0×10^4 cells/mL, the cell suspension was inoculated into a 96-well plate at 100 μL per well and cultured overnight at 37° C. in a 5% (volume fraction) CO2 incubator. After the cells were completely adhered, the polypeptides of the present invention were added as drug-administered groups, and a culture solution containing no drug was used as a blank control group, and the culture solution was diluted to each predetermined concentration. Each dilution was separately added to a 96-well plate at 100 μL per well and incubated for 48 hours at 37° C. in a 5% (volume fraction) CO2 incubator. 20 μL of 5 mg/mL MTT was added to each well of a 96-well plate and incubation was continued for 4 h. The medium was aspirated and dissolved in 100 μL of DMSO per well. The absorbance was measured with a microplate reader at a detection wavelength of 570 nm and a reference wavelength of 630 nm, and the growth inhibition rate was calculated as follows: tumor growth inhibition rate (%)=(1−absorbance value of the administered group/unadministered group absorbance value)×100%, and the experiment was repeated 3 times independently. The results obtained from the test were expressed as mean±standard deviation, and the tumor growth inhibition rate of the unadministered group was 0. The results in Table 7 indicate that the polypeptides of the present invention have a significant inhibitory effect on the growth of various tumors (FIG. 6).
row,Substance,"tumor growth inhibition rate, MTT Assay [%]"
1,Ile-Val-Arg-Arg-Ala-Asp-Arg-Ala-Ala-Val-Pro-Gly-Gly-Gly-Gly-Arg-Gly-Asp-Gly-Gly-Gly-Gly-Pro-(D-Pyr)-(D-Cys)-Bip-Arg-Gly-Glu [Polypeptide V],66.86 ± 21.63

# System: Pancreatic cancer
# Experiment: MTT assay, tumor cells
# Assay type: cell-based, human
# Parameters: concentration or dose not given beside the values
# Conditions: 48 hours, mean ± SD
# Description: as §2
row,Substance,"tumor growth inhibition rate, MTT Assay [%]"
1,Ile-Val-Arg-Arg-Ala-Asp-Arg-Ala-Ala-Val-Pro-Gly-Gly-Gly-Gly-Arg-Gly-Asp-Gly-Gly-Gly-Gly-Pro-(D-Pyr)-(D-Cys)-Bip-Arg-Gly-Glu [Polypeptide V],63.15 ± 20.63

# System: Brain tumor
# Experiment: MTT assay, tumor cells
# Assay type: cell-based, human
# Parameters: concentration or dose not given beside the values
# Conditions: 48 hours, mean ± SD
# Description: as §2
row,Substance,"tumor growth inhibition rate, MTT Assay [%]"
1,Ile-Val-Arg-Arg-Ala-Asp-Arg-Ala-Ala-Val-Pro-Gly-Gly-Gly-Gly-Arg-Gly-Asp-Gly-Gly-Gly-Gly-Pro-(D-Pyr)-(D-Cys)-Bip-Arg-Gly-Glu [Polypeptide V],58.65 ± 15.73

# System: Melanoma
# Experiment: MTT assay, tumor cells
# Assay type: cell-based, human
# Parameters: concentration or dose not given beside the values
# Conditions: 48 hours, mean ± SD
# Description: as §2
row,Substance,"tumor growth inhibition rate, MTT Assay [%]"
1,Ile-Val-Arg-Arg-Ala-Asp-Arg-Ala-Ala-Val-Pro-Gly-Gly-Gly-Gly-Arg-Gly-Asp-Gly-Gly-Gly-Gly-Pro-(D-Pyr)-(D-Cys)-Bip-Arg-Gly-Glu [Polypeptide V],48.77 ± 13.08

# System: Prostate cancer
# Experiment: MTT assay, tumor cells
# Assay type: cell-based, human
# Parameters: concentration or dose not given beside the values
# Conditions: 48 hours, mean ± SD
# Description: as §2
row,Substance,"tumor growth inhibition rate, MTT Assay [%]"
1,Ile-Val-Arg-Arg-Ala-Asp-Arg-Ala-Ala-Val-Pro-Gly-Gly-Gly-Gly-Arg-Gly-Asp-Gly-Gly-Gly-Gly-Pro-(D-Pyr)-(D-Cys)-Bip-Arg-Gly-Glu [Polypeptide V],69.32 ± 22.29

# System: Kidney cancer
# Experiment: MTT assay, tumor cells
# Assay type: cell-based, human
# Parameters: concentration or dose not given beside the values
# Conditions: 48 hours, mean ± SD
# Description: as §2
row,Substance,"tumor growth inhibition rate, MTT Assay [%]"
1,Ile-Val-Arg-Arg-Ala-Asp-Arg-Ala-Ala-Val-Pro-Gly-Gly-Gly-Gly-Arg-Gly-Asp-Gly-Gly-Gly-Gly-Pro-(D-Pyr)-(D-Cys)-Bip-Arg-Gly-Glu [Polypeptide V],51.41 ± 17.48

# System: Liver cancer
# Experiment: MTT assay, tumor cells
# Assay type: cell-based, human
# Parameters: concentration or dose not given beside the values
# Conditions: 48 hours, mean ± SD
# Description: as §2
row,Substance,"tumor growth inhibition rate, MTT Assay [%]"
1,Ile-Val-Arg-Arg-Ala-Asp-Arg-Ala-Ala-Val-Pro-Gly-Gly-Gly-Gly-Arg-Gly-Asp-Gly-Gly-Gly-Gly-Pro-(D-Pyr)-(D-Cys)-Bip-Arg-Gly-Glu [Polypeptide V],62.54 ± 16.77

# System: Bladder Cancer
# Experiment: MTT assay, tumor cells
# Assay type: cell-based, human
# Parameters: concentration or dose not given beside the values
# Conditions: 48 hours, mean ± SD
# Description: as §2
row,Substance,"tumor growth inhibition rate, MTT Assay [%]"
1,Ile-Val-Arg-Arg-Ala-Asp-Arg-Ala-Ala-Val-Pro-Gly-Gly-Gly-Gly-Arg-Gly-Asp-Gly-Gly-Gly-Gly-Pro-(D-Pyr)-(D-Cys)-Bip-Arg-Gly-Glu [Polypeptide V],44.49 ± 11.93

# — patent publication US20190031717A1, “MULTI-FUNCTIONAL FUSION POLYPEPTIDE, PREPARATION METHOD THEREOF, AND APPLICATION OF SAME” (NANJING ANJI BIOLOGICAL TECHNOLOGY CO., LTD, priority 2016, published 2019)
